According to PMC12308805, “Ultrahigh-Throughput Virtual Screening Strategies against PPI Targets: A Case Study of STAT Inhibitors” (Journal of Chemical Information and Modeling, 2025):
“And” between values parts separate entries of the source, which are not always exact repeats. Identical values can stand only once. One block for each compound: values may come before it.

Columns and labels:
Type in all cases: binding
[1] = molecular target: T1, STAT5b (136–703) SH2 domain (Homo sapiens, UniProt P51692); assay: Fluorescence polarization assay (FP-assay), STAT5b SH2 domain; parameters: key to identified as active in FP-assay: A compound was identified as active, if it had a mean IC50 value under 100 μM; details: for IC50: FP-assay, mean IC50, at least three biological replicates
T1 sequence (P51692 136-703): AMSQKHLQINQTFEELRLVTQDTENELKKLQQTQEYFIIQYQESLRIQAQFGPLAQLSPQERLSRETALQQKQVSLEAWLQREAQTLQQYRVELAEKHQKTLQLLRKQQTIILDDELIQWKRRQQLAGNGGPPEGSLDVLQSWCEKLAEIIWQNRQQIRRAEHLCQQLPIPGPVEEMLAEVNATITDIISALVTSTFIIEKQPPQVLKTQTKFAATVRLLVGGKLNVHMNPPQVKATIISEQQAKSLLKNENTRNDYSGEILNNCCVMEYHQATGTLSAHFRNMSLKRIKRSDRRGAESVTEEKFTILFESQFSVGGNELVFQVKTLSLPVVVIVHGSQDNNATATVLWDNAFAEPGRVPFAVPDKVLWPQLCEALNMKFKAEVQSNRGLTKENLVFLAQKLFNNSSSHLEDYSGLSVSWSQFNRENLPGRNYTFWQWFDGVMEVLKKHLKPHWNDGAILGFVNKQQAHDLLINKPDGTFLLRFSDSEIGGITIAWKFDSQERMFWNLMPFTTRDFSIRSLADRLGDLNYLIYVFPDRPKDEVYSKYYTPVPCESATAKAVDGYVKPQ
Experimental: (§1) The respective protocols for the expression and purification of the STAT3 SH2 and STAT5b SH2 domains were published in our recent works. Fluorescence polarization assays (FP-assays) were performed on a Molecular Devices SpectraMax iD5Multimode Microplate Reader (San Jose, CA, USA) using Greiner black 384-well flat-bottom nonbinding microplates with 40 μL final well volumes. The fluorescent peptides (5-FAM-G(pTyr)-LPQTV-NH2 and 5-FAM-G(pTyr)-LVLDKW-NH2, purchased from GenScript Biotech Ltd., Piscataway, NJ, USA), as well as the proteins, were diluted with a buffer containing 50 mM NaCl, 10 mM HEPES (4-(2-hydroxyethyl)-1-piperazineethanesulfonic acid), 1 mM EDTA (ethylenediaminetetraacetic acid), 2 mM DTT (dithiothreitol), and 0.1% Triton X-100, pH 7.5. For STAT3 (127–770), the final concentration of the protein was 200 nM, and the fluorescent peptide (5-FAM-G(pTyr)-LPQTV-NH2) was added at a final concentration of 5 nM; for STAT5b (136–703), the final concentration of the protein was 500 nM, and the fluorescent peptide (5-FAM-G(pTyr)-LVLDKW-NH2) was added at a final concentration of 10 nM. The wells were treated with varying concentrations of inhibitors (1250 to 0.11 μM final concentrations). The final DMSO content was 2.5%. After mixing, the protein and inhibitors were incubated at room temperature for 30 min, then the fluorescent peptide was added, and the plate was incubated for another 20 min prior to the fluorescence readout (extinction wavelength: 475 nm, emission wavelength: 520 nm). The measurements were carried out in at least three biological replicates. Fluorescence polarization was calculated from the perpendicular and parallel fluorescence intensities and then plotted against concentration. The IC50 values were determined after fitting quadratic dose–response curves on the data points in GraphPad Prism 8.0.1. […] All plotted curves and data points for the hit compounds are included in Section 2 of the Supporting Information.

[2] = molecular target: T2, STAT3 (127–770) SH2 domain (Homo sapiens, UniProt P40763); assay: Fluorescence polarization assay (FP-assay), STAT3 SH2 domain; parameters: key to identified as active in FP-assay: A compound was identified as active, if it had a mean IC50 value under 100 μM; details: for IC50: FP-assay, mean IC50, at least three biological replicates
T2 construct: For STAT3 (127–770), the final concentration of the protein was 200 nM; made in house
T2 sequence (P40763 127-770): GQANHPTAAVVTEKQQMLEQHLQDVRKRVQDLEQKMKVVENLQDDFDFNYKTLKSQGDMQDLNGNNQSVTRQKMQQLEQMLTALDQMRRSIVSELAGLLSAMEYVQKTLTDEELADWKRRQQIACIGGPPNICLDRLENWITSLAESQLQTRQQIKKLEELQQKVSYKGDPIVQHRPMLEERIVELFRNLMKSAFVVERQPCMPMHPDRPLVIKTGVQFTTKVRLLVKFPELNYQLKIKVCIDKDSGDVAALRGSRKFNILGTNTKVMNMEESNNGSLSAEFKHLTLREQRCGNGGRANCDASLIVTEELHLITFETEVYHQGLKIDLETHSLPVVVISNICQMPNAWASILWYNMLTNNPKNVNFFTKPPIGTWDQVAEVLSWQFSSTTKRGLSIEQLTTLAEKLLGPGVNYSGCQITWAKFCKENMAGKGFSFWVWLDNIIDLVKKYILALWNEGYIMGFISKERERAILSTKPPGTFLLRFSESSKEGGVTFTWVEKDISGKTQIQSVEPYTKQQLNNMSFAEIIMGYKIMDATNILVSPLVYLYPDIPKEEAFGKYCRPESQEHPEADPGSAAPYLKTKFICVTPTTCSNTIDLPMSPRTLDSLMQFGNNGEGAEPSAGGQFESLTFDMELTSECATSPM
Experimental: as §1

[3] = molecular target: T3, STAT5b N-terminal domain (NTD) (Homo sapiens, UniProt P51692); assay: Isothermal titration calorimetry (ITC), STAT5b-NTD; parameters: key to identified as active in ITC: A compound was identified as active, if it had a mean Kd value under 100 μM; details: for Kd: ITC, 25 °C, 1X PBS pH 7.4, 8% DMSO, single-site fit
T3 sequence (P51692 1-126 limits assumed): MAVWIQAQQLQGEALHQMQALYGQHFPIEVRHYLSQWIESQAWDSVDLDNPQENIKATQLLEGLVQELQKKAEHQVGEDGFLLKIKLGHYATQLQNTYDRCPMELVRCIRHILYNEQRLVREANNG
Experimental: The detailed protocol for the expression and purification of the STAT5b-NTD was described in our recent work. ITC measurements were carried out on a MicroCal PEAQ-ITC microcalorimeter (Malvern Instruments, Worcestershire, UK). All protein and ligand solutions were composed of 1X PBS (pH 7.4) buffer containing 8% (V/V) DMSO to avoid buffer mismatch. Protein solutions containing 25-26 μM protein were prepared in batches prior to measurements by diluting 676 μM stock solution (stored in 1X PBS (pH 7.4) buffer at -80 °C) warmed to room temperature with 1X PBS (pH 7.4) buffer solution and an appropriate amount of DMSO. Ligand solutions were prepared by first dissolving the ligands in DMSO to acquire a 50 mM stock solution, which was then diluted to 1 mM (in the case of […]_M2 ligand) or 4 mM (all other ligands) concentration using 1X PBS (pH 7.4) buffer solution. Appropriate amounts of DMSO were also added to the solution containing 1 mM ligand to yield a 8% (V/V) DMSO content. The protein solution was loaded into the sample cell in a volume of 200 μL and was titrated at 25 °C with the ligand solution at a stirring speed of 1000 rpm and a reference heat rate of 10 μcal/s in a high feedback mode. Used initial delay was 120 s, and the injection program was composed of an initial first injection with 0.5 μL over 2 s, followed by 18 injections with 2 μL over 4 s. Injections were performed every 180 s. Blank measurements consisting of titrating the ligand into the buffer (1X PBS (pH 7.4) containing 8% (V/V) DMSO) were carried out to correct for the heat of dilution for all ligands using the appropriate injection program. Data were analyzed using the MicroCal PEAQ-ITC analysis software (version 1.22) by fitting a single-site binding curve. […] Binding curves of the identified active compounds are included in Supporting Information Figures S3-S5.

Structure (SMILES): Cc1c(O)ccc2c(CC(=O)NCC(=O)NCC(=O)O)cc(=O)oc12 [S3_O10, Cc1c(O)ccc2c(CC(=O)NCC(=O)NCC(=O)[OH])cc(=O)oc12]
identified as active in FP-assay [2]: active
IC50 [2]: 99.9 ± 55.6 µM

Structure (SMILES): O=C(NCC[C@@H](O)c1ccc2c(c1)OCO2)C(=O)Nc1ccc(F)c(Cl)c1 [S5N_M1, Clc(c1)c(F)ccc1NC(=O)C(=O)NCC[C@@H](O)c(cc2)cc(c23)OCO3]
identified as weakly binding in ITC [3]: weakly binding (weakly binding (mean Kd is higher than 100 μM))
Kd [3]: 484 ± 22.5 µM

Structure (SMILES): NC(=O)C1CCN(C(=O)c2ccccc2NC(=O)c2cccc(NC(=O)CCn3ccnc3)c2)CC1 [S3_E3, NC(=O)C1CCN(CC1)C(=O)c2ccccc2NC(=O)c3cccc(c3)NC(=O)CCn4cc[n]c4]
identified as weakly binding in FP-assay [2]: weakly binding (A weakly binding compound (mean IC50 value higher than 100 μM))
IC50 [2]: 472 ± 112 µM

Structure (SMILES): Cc1cccc(OC[C@@H](O)CN(C(=O)NC[C@H]2CC(C(N)=O)=NO2)C(C)C)c1 [S3_E7, Cc1cc(ccc1)OC[C@@H](O)CN(C(C)C)C(=O)NC[C@H]2CC(=NO2)C(=O)N]
identified as active in FP-assay [2]: active
IC50 [2]: 62.7 ± 25.1 µM

Structure (SMILES): CC(=O)N1CC[C@@H](NC(=O)c2cc3ccccc3cc2O)[C@H](O)C1 [S5N_M6, c1cccc(c12)cc(c(O)c2)C(=O)N[C@@H]3CCN(C(=O)C)C[C@H]3O]
identified as active in ITC [3]: active
Kd [3]: 57.3 ± 11.9 µM

Structure (SMILES): O=C(NC[C@@]1(O)CCCNC1)Nc1cc(Cl)ccc1Cl [S5N_M4, Clc(c1)ccc(Cl)c1NC(=O)NC[C@@]2(O)CCC[NH]C2]
identified as active in ITC [3]: active
Kd [3]: 81.3 ± 12.7 µM

Structure (SMILES): O=C(O)CCCn1ccc2c(nnc3ccnn32)c1=O [S3_M13, n1ccc(nn2)n1c(c23)ccn(c3=O)CCCC([OH])=O]
identified as active in FP-assay [2]: active
IC50 [2]: 64.4 ± 17.7 µM

Structure (SMILES): Nc1ccc(C(=O)O)c(C(=O)O)c1 [S3_M15, Nc1cc(C([OH])=O)c(C([OH])=O)cc1]
identified as weakly binding in FP-assay [2]: weakly binding (A weakly binding compound (mean IC50 value higher than 100 μM))

Structure (SMILES): NC(=O)CSc1ccccc1C(=O)NC[C@H](O)COc1ccc2c(c1)OCO2 [S3_E4, NC(=O)CSc1ccccc1C(=O)NC[C@H](O)COc(cc2)cc(c23)OCO3]
identified as active in FP-assay [2]: active
IC50 [2]: 13.6 ± 6.1 µM

Structure (SMILES): COc1ccccc1COC[C@@H](O)CN[C@H](C)c1cccc(S(N)(=O)=O)c1 [S3_E5, COc1ccccc1COC[C@@H](O)C[NH][C@H](C)c2cccc(c2)S(=O)(=O)N]
identified as active in FP-assay [2]: active
IC50 [2]: 26.7 ± 22.2 µM

Structure (SMILES): C[C@@](O)(CNC(=O)NCc1cccc2ccccc12)c1ccc2c(c1)OCO2 [S5N_M2, c1cccc(c12)c(ccc2)CNC(=O)NC[C@@](C)(O)c(cc3)cc(c34)OCO4]
identified as active in ITC [3]: active
Kd [3]: 34.9 ± 4.29 µM

Structure (SMILES): O=[N+]([O-])c1ccccc1S(=O)(=O)NC[C@H](O)COc1ccc2c(c1)OCO2 [S3_E6, O=[N+]([O-])c1ccccc1S(=O)(=O)NC[C@H](O)COc(cc2)cc(c23)OCO3]
identified as active in FP-assay [2]: active
IC50 [2]: 21.7 ± 10.4 µM

Structure (SMILES): Nc1ccc(-n2ccc(C(=O)O)n2)nc1 [S3_B12, Nc1ccc(nc1)n1ccc(n1)C(=O)O]
identified as weakly binding in FP-assay [2]: weakly binding (A weakly binding compound (mean IC50 value higher than 100 μM))
IC50 [2]: > 100 µM and 104 µM

Structure (SMILES): NCCN(Cc1csc(COc2ccccc2)n1)C[C@@H](O)CO [S3_E8, OC[C@H](O)CN(CC[NH2])Cc1csc(n1)COc2ccccc2]
identified as weakly binding in FP-assay [2]: weakly binding (A weakly binding compound (mean IC50 value higher than 100 μM))
IC50 [2]: 454 ± 181 µM

Structure (SMILES): C[C@@H](NC(=O)[C@@H]1CCCC[C@@H]1C(=O)O)c1ccncc1 [S3_M2, c1cnccc1[C@@H](C)NC(=O)[C@@H]2CCCC[C@@H]2C([OH])=O]
identified as active in FP-assay [2]: active
IC50 [2]: 80 ± 34.3 µM

More lines, main results first:

identified as active in FP-assay [1]: active
IC50 [1]: 41.2 ± 10.5 µM
Structure (SMILES): Nc1nc(NCCc2cn3ccsc3n2)cc([C@H]2C[C@H](O)C2)n1 [S5_M8, s1ccn(c12)cc(n2)CCNc3cc(nc(n3)N)[C@@H]4C[C@H](C4)O]

IC50 [1]: 13.8 ± 14.9 µM
Structure (SMILES): Cn1c(CN2CCC(O)CC2)nnc1[C@H]1CCCN(Cc2ncc[nH]2)C1 [S5_M14, C1CC(O)CCN1Cc(n2C)nnc2[C@H]3CCCN(C3)Cc4[nH]cc[n]4]

Kd [3]: 268 ± 37.8 µM
Structure (SMILES): N[C@H]1C[C@@H](c2cc(N[C@H](CO)Cc3ccccc3)ncn2)C1 [S5N_M7, C1[C@H]([NH2])C[C@@H]1c(c2)ncnc2N[C@H](CO)Cc3ccccc3]
identified as weakly binding in ITC [3]: weakly binding (weakly binding (mean Kd is higher than 100 μM))

IC50 [1]: 378 ± 108 µM
Structure (SMILES): Cc1c(CC(=O)N[C@H](CCCCNC(N)=O)C(=O)O)c(=O)oc2cc(O)ccc12 [S5_M6, c1cc(O)cc(c12)oc(=O)c(c2C)CC(=O)N[C@@H](C([OH])=O)CCCCNC(=O)N]
identified as weakly binding in FP-assay [1]: weakly binding (A weakly binding compound (mean IC50 value higher than 100 μM))

identified as active in FP-assay [1]: active
Structure (SMILES): O=C(NCCc1cnccn1)[C@H]1CCCN(C2CCN(Cc3ccncc3)CC2)C1 [S5_M13, c1cnccc1CN(CC2)CCC2[N@@]3CCC[C@@H](C3)C(=O)NCCc4cnccn4]

identified as active in FP-assay [1]: active
IC50 [1]: 62.4 ± 28.2 µM
Structure (SMILES): COc1cnc(CSc2nc(C)cc(C)n2)cc1OCC(N)=O [S5_M2, Cc(n1)cc(C)nc1SCc2cc(c(cn2)OC)OCC(=O)N]

identified as active in FP-assay [1]: active
IC50 [1]: 38.7 ± 13.7 µM
Structure (SMILES): O=C(O)C[C@@H](O)c1nc2ccccc2[nH]1 [S5_M1, [OH]C(=O)C[C@@H](O)c([nH]1)nc(c12)cccc2]

identified as active in FP-assay [1]: active
IC50 [1]: 16.2 ± 8.2 µM
Structure (SMILES): O=C(O)[C@@H](O)[C@@H](O)c1nc2ccccc2[nH]1 [S5_M7, [OH]C(=O)[C@@H](O)[C@@H](O)c([nH]1)nc(c12)cccc2]

identified as active in FP-assay [1]: active
IC50 [1]: 42.6 ± 20.2 µM
Structure (SMILES): O=C(CCc1nc2ccccc2[nH]1)NCc1cc(-c2ccccc2)[nH]n1 [S5_M9, c1cccc(c12)[nH]c(n2)CCC(=O)NCc3n[nH]c(c3)-c4ccccc4]
